Measurements taken from PubChem BioAssay (NCI).
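Cultured in 96-well plates, cells were exposed to test compound for 48 hours across five concentrations. GI50 is the concentration that inhibits growth by half. At the TGI there is no net growth.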

How the values were obtained:
Experiment in all cases: NCI-60 cell line screen, 48 h
LOX IMVI melanoma = test system: LOX IMVI melanoma
CCRF-CEM leukemia = test system: CCRF-CEM leukemia
HT29 colon = test system: HT29 colon
EKVX NSCLC = test system: EKVX NSCLC
SF-539 CNS = test system: SF-539 CNS
OVCAR-8 ovarian = test system: OVCAR-8 ovarian
PC-3 prostate = test system: PC-3 prostate
HOP-92 NSCLC = test system: HOP-92 NSCLC
A549 NSCLC = test system: A549 NSCLC
MDA-MB-435 = test system: MDA-MB-435
MCF7 breast = test system: MCF7 breast
SF-295 CNS = test system: SF-295 CNS
SNB-75 CNS = test system: SNB-75 CNS
NCI/ADR-RES ovarian = test system: NCI/ADR-RES ovarian
SK-OV-3 ovarian = test system: SK-OV-3 ovarian
SNB-19 CNS = test system: SNB-19 CNS
A498 renal = test system: A498 renal
SK-MEL-5 melanoma = test system: SK-MEL-5 melanoma
HCT-116 colon = test system: HCT-116 colon
KM12 colon = test system: KM12 colon
SK-MEL-28 melanoma = test system: SK-MEL-28 melanoma
DU-145 prostate = test system: DU-145 prostate
786-0 renal = test system: 786-0 renal
NCI-H522 lung = test system: NCI-H522 lung
SN12C renal = test system: SN12C renal
M14 melanoma = test system: M14 melanoma
RPMI-8226 leukemia = test system: RPMI-8226 leukemia
ACHN renal = test system: ACHN renal
HCC-2998 colon = test system: HCC-2998 colon
TK-10 renal = test system: TK-10 renal
UO-31 renal = test system: UO-31 renal
OVCAR-4 ovarian = test system: OVCAR-4 ovarian
CAKI-1 renal = test system: CAKI-1 renal
RXF 393 renal = test system: RXF 393 renal
OVCAR-5 ovarian = test system: OVCAR-5 ovarian
MOLT-4 leukemia = test system: MOLT-4 leukemia
NCI-H23 lung = test system: NCI-H23 lung
T-47D breast = test system: T-47D breast
SR leukemia = test system: SR leukemia
HS 578T breast = test system: HS 578T breast
MDA-MB-231 breast = test system: MDA-MB-231 breast
OVCAR-3 ovarian = test system: OVCAR-3 ovarian
HCT-15 colon = test system: HCT-15 colon
UACC-62 melanoma = test system: UACC-62 melanoma
SF-268 CNS = test system: SF-268 CNS
HL-60(TB) leukemia = test system: HL-60(TB) leukemia
COLO 205 colon = test system: COLO 205 colon
NCI-H460 lung = test system: NCI-H460 lung
SW-620 colon = test system: SW-620 colon
HOP-62 NSCLC = test system: HOP-62 NSCLC
MALME-3M melanoma = test system: MALME-3M melanoma
BT-549 breast = test system: BT-549 breast
SK-MEL-2 melanoma = test system: SK-MEL-2 melanoma
NCI-H226 lung = test system: NCI-H226 lung
K-562 leukemia = test system: K-562 leukemia
IGROV1 ovarian = test system: IGROV1 ovarian
UACC-257 melanoma = test system: UACC-257 melanoma
U251 CNS = test system: U251 CNS

For `COc1cc2c3c(n(CCCN4CCC[C@H]4C(N)=O)c(=O)c2cc1OC)-c1cc2c(cc1C3=O)OCO2`, the GI50 (LOX IMVI melanoma) was 19.3 nM, the TGI (LOX IMVI melanoma) was 485 nM and the GI50 (CCRF-CEM leukemia) was less than 14.6 nM. The TGI (CCRF-CEM leukemia) was 4600 nM, the GI50 (HT29 colon) was 67.4 nM and the TGI (HT29 colon) was 671 nM. It also gave a TGI (EKVX NSCLC) greater than 100000 nM, a GI50 (SF-539 CNS) of 29.6 nM and a TGI (SF-539 CNS) of 541 nM. For the same molecule, the GI50 (OVCAR-8 ovarian) was 78.3 nM, the TGI (OVCAR-8 ovarian) was 2710 nM and the GI50 (PC-3 prostate) was 329 nM. It also gave a TGI (PC-3 prostate) of 22600 nM, a GI50 (HOP-92 NSCLC) of 808 nM and a TGI (HOP-92 NSCLC) greater than 29500 nM. It also gave a GI50 (A549 NSCLC) of 103 nM, a TGI (A549 NSCLC) greater than 57300 nM and a GI50 (MDA-MB-435) of 148 nM. The TGI (MDA-MB-435) was 14000 nM, the GI50 (MCF7 breast) was less than 10.7 nM and the TGI (MCF7 breast) was 1420 nM. It also gave a GI50 (SF-295 CNS) of 17.9 nM, a TGI (SF-295 CNS) of 15000 nM and a GI50 (SNB-75 CNS) of 30.1 nM. For the same molecule, the TGI (SNB-75 CNS) was 1200 nM, the GI50 (NCI/ADR-RES ovarian) was 154 nM and the TGI (NCI/ADR-RES ovarian) was greater than 100000 nM. The GI50 (SK-OV-3 ovarian) was 39.6 nM, the TGI (SK-OV-3 ovarian) was 1260 nM and the GI50 (SNB-19 CNS) was 40.5 nM. The TGI (SNB-19 CNS) was greater than 100000 nM, the TGI (A498 renal) was greater than 100000 nM and the GI50 (SK-MEL-5 melanoma) was 40.7 nM. It also gave a TGI (SK-MEL-5 melanoma) of 199 nM, a GI50 (HCT-116 colon) of 32.2 nM and a TGI (HCT-116 colon) of 3670 nM. The GI50 (KM12 colon) was 415 nM, the TGI (KM12 colon) was 11100 nM and the GI50 (SK-MEL-28 melanoma) was 1880 nM. The TGI (SK-MEL-28 melanoma) was greater than 100000 nM, the GI50 (DU-145 prostate) was 38.2 nM and the TGI (DU-145 prostate) was 12600 nM. It also gave a GI50 (786-0 renal) of 39.2 nM, a TGI (786-0 renal) of 1530 nM and a GI50 (NCI-H522 lung) of 23.6 nM. The TGI (NCI-H522 lung) was 4480 nM, the GI50 (SN12C renal) was 42.2 nM and the TGI (SN12C renal) was greater than 52400 nM. It also gave a GI50 (M14 melanoma) of 35.8 nM, a TGI (M14 melanoma) of 2460 nM and a GI50 (RPMI-8226 leukemia) of 82.9 nM. The TGI (RPMI-8226 leukemia) was 2360 nM, the GI50 (ACHN renal) was 27.4 nM and the TGI (ACHN renal) was 3860 nM. It also gave a GI50 (HCC-2998 colon) of 224 nM, a TGI (HCC-2998 colon) of 13800 nM and a GI50 (TK-10 renal) greater than 42300 nM. The TGI (TK-10 renal) was greater than 100000 nM, the GI50 (UO-31 renal) was 40.9 nM and the TGI (UO-31 renal) was greater than 41000 nM. The GI50 (OVCAR-4 ovarian) was 905 nM, the TGI (OVCAR-4 ovarian) was 5690 nM and the GI50 (CAKI-1 renal) was 16.2 nM. It also gave a TGI (CAKI-1 renal) of 20700 nM, a GI50 (RXF 393 renal) of 167 nM and a TGI (RXF 393 renal) of 2320 nM. It also gave a GI50 (OVCAR-5 ovarian) of 319 nM, a TGI (OVCAR-5 ovarian) of 26500 nM and a GI50 (MOLT-4 leukemia) of less than 12.5 nM. It also gave a TGI (MOLT-4 leukemia) of 178 nM, a GI50 (NCI-H23 lung) of 44.8 nM and a TGI (NCI-H23 lung) of 2320 nM. The GI50 (T-47D breast) was 31.3 nM, the TGI (SR leukemia) was 540 nM and the GI50 (HS 578T breast) was greater than 100000 nM. It also gave a TGI (HS 578T breast) greater than 100000 nM, a GI50 (MDA-MB-231 breast) of 1160 nM and a TGI (MDA-MB-231 breast) of 16200 nM. It also gave a GI50 (OVCAR-3 ovarian) of 161 nM, a TGI (OVCAR-3 ovarian) of 3660 nM and a GI50 (HCT-15 colon) of 318 nM. The TGI (HCT-15 colon) was 5800 nM, the GI50 (UACC-62 melanoma) was 19.3 nM and the TGI (UACC-62 melanoma) was 3210 nM. The GI50 (SF-268 CNS) was 39.8 nM, the TGI (SF-268 CNS) was greater than 100000 nM and the GI50 (HL-60(TB) leukemia) was 37.1 nM. It also gave a TGI (HL-60(TB) leukemia) of 3700 nM, a GI50 (COLO 205 colon) of 223 nM and a TGI (COLO 205 colon) greater than 100000 nM. For the same molecule, the GI50 (NCI-H460 lung) was less than 15.2 nM, the GI50 (SW-620 colon) was 89.7 nM and the TGI (SW-620 colon) was greater than 48200 nM. The GI50 (HOP-62 NSCLC) was 29.3 nM, the TGI (HOP-62 NSCLC) was 12700 nM and the GI50 (MALME-3M melanoma) was 375 nM. The TGI (MALME-3M melanoma) was greater than 57000 nM, the GI50 (BT-549 breast) was 70.7 nM and the TGI (BT-549 breast) was 13900 nM. The GI50 (SK-MEL-2 melanoma) was greater than 100000 nM, the TGI (SK-MEL-2 melanoma) was greater than 100000 nM and the GI50 (NCI-H226 lung) was 48.1 nM. The TGI (NCI-H226 lung) was 1180 nM, the GI50 (K-562 leukemia) was 41 nM and the TGI (K-562 leukemia) was 2580 nM. For the same molecule, the GI50 (IGROV1 ovarian) was 379 nM, the TGI (IGROV1 ovarian) was 34900 nM and the GI50 (UACC-257 melanoma) was 232 nM. It also gave a TGI (UACC-257 melanoma) greater than 100000 nM, a GI50 (U251 CNS) of 24.9 nM and a TGI (U251 CNS) of 1890 nM.
